The supplement of paper PMC10307832

Assays:
Experiment in all cases: relative viability (nuclei count vs DMSO), 5 days (fraction); higher = more cells survive
[1] = compound: C#Cc1cccc(Nc2ncnc3cc(OC)c(OCCCCCCC(=O)NO)cc23)c1 [CUDC-101]
How it was run: (§1)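 In 1536-well plates, lung cancer cell lines rested overnight at 37 °C before five library-drug doses (not always all listed), √10 apart, were pinned onto vehicle-anchored plates. Nuclei were counted with MetaXpress from 4× Hoechst images taken after 5 days without medium change. Viability compares treated-well with vehicle-well nuclei as a median over plates, and plates needed control CV below 25% plus at least one doubling to pass.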

[2] = compound: C1=CC=C2C(=C1)N=C(S2)C(C#N)C3=NC(=NC=C3)NCCC4=CN=CC=C4
How it was run: as §1

[3] = compound: COc1cc(N2CCC(N3CCN(C)CC3)CC2)ccc1Nc1ncc(Cl)c(Nc2ccccc2S(=O)(=O)C(C)C)n1 [NVP-TAE684]
How it was run: as §1

[4] = compound: COc1cc2/c(=N/c3ccc(Br)cc3F)nc[nH]c2cc1OCC1CCN(C)CC1 [Vandetanib]
How it was run: as §1

| Cell Line | relative viability ([1]; 0.01 µM) | relative viability ([1]; 0.03162 µM) | relative viability ([1]; 0.1 µM) | relative viability ([1]; 0.3162 µM) | relative viability ([1]; 1 µM) | relative viability ([2]; 0.005 µM) | relative viability ([2]; 0.01581 µM) | relative viability ([2]; 0.05 µM) | relative viability ([2]; 0.1581 µM) | relative viability ([2]; 0.5 µM) | relative viability ([3]; 0.2 µM) | relative viability ([3]; 0.6325 µM) | relative viability ([3]; 2 µM) | relative viability ([4]; 0.02 µM) | relative viability ([4]; 0.06325 µM) | relative viability ([4]; 0.2 µM) | relative viability ([4]; 0.6325 µM) | relative viability ([4]; 2 µM) |
| --- | --- | --- | --- | --- | --- | --- | --- | --- | --- | --- | --- | --- | --- | --- | --- | --- | --- | --- |
| LU99A | 1.07 | 0.877 | 0.808 | 0.9 | 0.58 | 0.779 | 0.995 | 0.877 | 1.04 | 0.972 | 0.998 | 0.942 | 0.616 | 0.839 | 0.846 | 0.92 | 0.895 | 0.951 |
| NCI-H650 | 1.13 | 1.02 | 1.14 | 0.98 | 0.849 | 0.86 | 0.782 | 1.04 | 1.14 | 1.02 | 1.01 | 0.662 | 0.622 | 1.02 | 1 | 0.907 | 1.06 | 0.403 |
| LXF-289 | 1.01 | 1.03 | 0.997 | 0.971 | 0.908 | 0.925 | 1.09 | 0.968 | 1.06 | 0.948 | 1.02 | 1.01 | 0.907 | 1.01 | 1.02 | 1.03 | 0.985 | 0.968 |
| NCI-H1299 | 1.01 | 0.998 | 1.02 | 1.01 | 0.919 | 1.06 | 1.05 | 0.95 | 1.06 | 0.974 | 1.05 | 1.01 |  | 1.01 | 0.963 | 1.05 | 1.01 | 1.02 |
| Calu-6 | 1.03 | 0.998 | 0.979 | 0.993 | 0.857 | 0.999 | 0.983 | 0.978 | 1.12 | 0.912 | 0.937 | 0.992 | 0.758 | 0.958 | 0.946 | 1.02 | 0.988 | 0.95 |
| NCI-H1703 | 0.997 | 0.743 | 1.1 | 1.19 | 0.904 | 0.814 | 0.841 | 0.782 | 0.889 | 1.14 | 1.07 | 0.845 |  | 1.02 | 0.673 | 0.963 | 0.775 | 0.537 |
| CAL-12T | 1.16 | 1.03 | 0.993 | 1.05 | 0.951 | 1 | 0.912 | 0.962 | 1.07 | 0.798 | 0.904 | 0.956 | 0.466 | 1.07 | 0.909 | 0.954 | 0.885 | 0.729 |
| SK-MES-1 | 0.968 | 0.984 | 0.989 | 0.971 | 0.683 | 1.05 | 1.02 | 0.949 | 1.09 | 0.882 | 1.02 |  | 0.714 | 1 | 0.896 | 1.03 | 0.912 | 0.827 |
| SW 1573 | 1.16 | 0.976 | 1.09 | 1.07 | 0.734 | 0.855 | 1.11 | 0.792 | 1.13 | 0.978 | 0.948 | 1.02 | 0.645 | 0.941 | 0.972 | 0.92 | 0.979 | 0.983 |
| NCI-H1975 | 0.996 | 0.917 | 0.934 | 1.03 | 0.91 | 0.858 | 0.912 | 1.01 | 1.1 | 0.653 | 0.974 | 0.926 | 0.608 | 0.931 | 0.888 | 0.871 | 0.997 | 0.805 |
| NCI-H647 | 1.08 | 0.899 | 1.04 | 0.987 | 0.801 | 0.814 | 0.997 | 0.927 | 1.16 | 0.893 | 0.924 | 1.01 | 0.723 | 0.965 | 0.946 | 0.968 | 0.933 | 0.872 |
| NCI-H322M | 0.889 | 0.846 | 0.768 | 0.739 | 0.474 | 0.745 | 0.839 | 0.924 | 0.951 | 0.914 | 1.02 | 0.795 | 0.636 | 0.895 | 0.879 | 0.872 | 0.797 | 0.538 |
| NCI-H1648 | 1.15 | 0.59 | 0.758 | 0.741 | 0.376 | 0.704 | 0.812 | 0.764 | 1.19 | 0.75 | 0.715 | 0.713 | 0.363 | 0.862 | 0.824 | 0.745 | 0.915 | 0.561 |
